Data from publication PMC5526551, “New hydrazonoindolin-2-ones: Synthesis, exploration of the possible anti-proliferative mechanism of action and encapsulation into PLGA microspheres” (PLoS ONE, 2017).
“Also recorded” adds a separate entry of the source. Where two headings read alike, the source gives them in different places.

What was measured:
Assay type in all cases: cell-based, human
[1] = system: phosphorylated tyrosine (p-Tyr) in A549 cells; assay: Total cellular tyrosine phosphorylation after serum stimulation (immunofluorescent imaging); details: for Change in p-Tyr levels: A549, serum stimulated; for IC50: A549, 10 min 10% fetal bovine serum, apparent IC50 of an increase for 7e, of a decrease for sunitinib, read-out: IC50 for change in total tyrosine phosphorylation (p-Tyr) levels
Method: Furthermore, compound 7e was analyzed for its effect on total cellular levels of phosphorylated tyrosine (p-Tyr) residues in human cancer cells. These studies were carried out using cells derived from lung adenocarcinoma (A549) and immunofluorescent imaging. The ability of the test compound 7e to affect acute serum stimulation of tyrosine phosphorylation was tested over a range of concentrations from less than 100 nM to 50 μM.
Cells were stimulated for 10 min with 10% fetal bovine serum. Phosphotyrosine levels were determined by indirect immunofluorescence followed by automated image acquisition and analysis.

A549 [2] = assay: Growth inhibition in NSCLC comparison line (selectivity and multidrug resistance studies); details: maximum 25 μM, read-out: IC50 NSCLC A-549 (sensitive)
Method: This assessment of the growth inhibitory activity of the compounds was tested in quadruplicate at a maximum concentration of 25 μM, followed by 10 serially diluted concentrations.
Compound 7e was analyzed for cancer cell growth inhibitory activity in a sensitive NSCLC cell line (A549) and a multidrug resistant lung cancer cell line (NCI-H69AR) which expresses the ABCC1 efflux pump protein. This assessment of activity tested compounds in quadruplicate at a maximum concentration of 25 μM, followed by 10 serially diluted concentrations.
A549, IEC-6, MCF-10A and 3t3 cells were harvested from 90-95% confluent cultures in 10 cm dishes, and diluted in growth media recommended by the suppliers as follows: A549 cells were cultured in RPMI-1640 medium supplemented with 5% fetal bovine serum (FBS). IEC-6 cells were obtained from ATCC and cultured in Dulbecco’s modified Eagle’s medium (DMEM) supplemented with 10% FBS and 0.1 unit/mL recombinant insulin. Swiss 3t3 cells were obtained from ATCC and cultured in DMEM supplemented with 10% FBS. MCF-10Acells were obtained from ATCC and cultured in a mixture DMEM and F12 media supplemented with 5% fetal bovine serum (FBS), 20 ng/mL recombinant epidermal growth factor, 10 µg/mL insulin, 0.5 µg/mL hydrocortisone and 100 ng/mL cholera toxin. An appropriate concentration of cells was prepared to add 1,250 cells in a volume of 25 µL per well in tissue culture treated BD 384-well microplates, then incubated overnight at 37 °C.
Compound 7e and the positive control, sunitinib, were diluted to a concentration of […] in DMSO. Concentrated dosing solutions (double the final concentration) were prepared by dilution of the DMSO stocks 1:500 in growth medium. Two-fold serial dilutions were then prepared in medium containing 0.2% DMSO to maintain a constant concentration of vehicle throughout the concentration range of the compound. Each of these was added in equal volume (25 µL) to four wells on each cell assay plate, along with vehicle control. The highest concentration for serial dilutions of the positive control sunitinib was prepared exactly as the experimental compounds. […]
At the end of the treatment period, assay plates were allowed to cool to RT for 10 min prior to addition of 25 µL per well Promega CellTiterGlo reagent, followed by an additional 10 min incubation at RT. The resulting luminescence was quantitated using a Molecular Devices Spectramax Paradigm.Percent growth inhibition was calculated using equation (1). The potency of compounds was determined using the non-linear dose response algorithm (four-parameter logistic fit) with GraphPad Prism 5 software. […]
Compound 7e was diluted to a concentration of 25 µM in DMSO. […] The resulting luminescence was quantitated using a Molecular Devices Spectramax Paradigm. […]

A549 [3] = assay: Cell cycle effects and total cell number (DAPI imaging); details: for Cell cycle effects: A549; for IC50: Homo sapiens
Method: Compound 7e was analyzed for effects on various aspects of cell cycle progression in human cancer cells. These studies were carried out using cells derived from lung adenocarcinoma (A549). This follow-up assessment of activity tested compounds used immunofluorescent imaging of phosphorylated Rb protein and the total DNA content of each cell to determine the cell cycle phase. The ability of the test compounds to affect the cell cycle and Rb phosphorylation was tested over a range of concentrations from less than 100 nM to 50 μM.
Fig 5 Dose-dependent changes in cell cycle. Distribution of cells within the cell cycle as well as total cell numbers were quantitated by fluorescent staining of nuclear DNA with DAPI. Phosphorylated Rb protein was detected by indirect immunofluorescence followed by automated image acquisition and analysis. […] All IC50 values are given under one unlabelled substance, with the y-axis title of each plot written in front as the measure.
A549 cells were harvested from a 90% confluent 10 cm dish and diluted in growth medium. An appropriate concentration of cells were prepared to add 5,000 cells in a volume of 100 µL per well in tissue culture treated PerkinElmer optical bottom ViewPlate microplates, then incubated overnight at 37°C. The following day, compound 7e and the positive control, sunitinib, were diluted in DMSO to concentrations 1000-fold above the maximum tested concentration.
Concentrated dosing solutions of twice the final concentration were prepared by dilution of the DMSO stocks 1:500 in growth media. Three-fold dilutions of each dosing medium were then prepared in medium containing 0.2% DMSO to maintain a constant concentration of vehicle throughout the concentration range of each compound. Each of these was added in equal volume (100 µL) to each well on the assay plate, along with the vehicle control. One plate of cells was incubated with the compounds for a further 24 h, and a separate plate was incubated with the compounds for 48 h.
DAPI (1 µg/mL) fluorescent dye was incubated with fixed cells to quantitate double stranded DNA within each cell nucleus to determine cell cycle distribution. DNA content in each cell was determined by total DAPI fluorescent intensity by high throughput image acquisition and analysis. Fluorescent intensities were plotted on histograms with threshold intensity values assigned to each cell cycle classification using the MetaXpress cell cycle analysis program. Results from each treatment were reported as average cell number in each of nine fields, as well as the percentage of cells within each phase of the cell cycle. Each of these parameters was analyzed using GraphPad Prism, and, where appropriate, IC50 values have been reported.

[4] = A549, 24 h, read-out: IC50 for reductions in the total cell number
[5] = A549, 48 h, read-out: IC50 for reductions in the total cell number

| Compound | Change in p-Tyr levels [1] | IC50 ([1]; Homo sapiens, A549, 10 min) | IC50 (A549 [2]; 72 h) | IC50 (A549 [2]; Homo sapiens, A549, 72 h) | Cell cycle effects (A549 [3]) | IC50 (A549 [3]; A549, 24 h, read-out: IC50, % G1-Phase cells) | IC50 (A549 [3]; [4]) | IC50 (A549 [3]; A549, 48 h, read-out: IC50, % G1-Phase cells) | IC50 (A549 [3]; [5]) | IC50 [1] |
| --- | --- | --- | --- | --- | --- | --- | --- | --- | --- | --- |
| O=C1Nc2ccc(Br)cc2C1=NN=C1C(=O)N(Cc2ccccc2)c2ccccc21 [Compound 7e, 1-Benzyl-3-((5-bromo-2-oxoindolin-3-ylidene)hydrazono)indolin-2-one] | nearly two-fold | 3.8 µM | 1.6 µM | 1.56 µM | decreased the percentage of cells in the G1 phase of the cell cycle with a corresponding increase in the S-phase; also recorded: decrease in the percentage of cells in the G1 phase of the cell cycle with a corresponding increase in the S-phase; also recorded: G1 decreased, S-phase increased | 6.26 µM | 2.67 µM | 5.16 µM | 2.36 µM | – |
| CCN(CC)CCNC(=O)c1c(C)[nH]c(/C=C2\C(=O)Nc3ccc(F)cc32)c1C [Sunitinib, sunitinib, reference compound] | modest dose-dependent decrease | 0.9 µM | 3.1 µM | 3.06 µM | G1 decreased and G2/M-phases increased | – | 12.5 µM | – | 3.48 µM | 0.91 µM |
